Calls of active or inactive are those of the source.
Legend:
Assay type in all cases: cell-based
[1] = target: T1, Transient receptor potential cation channel subfamily M member 5 (Homo sapiens) (UniProt Q9NZQ8); test: Agonist activity at human TRPM5 expressed in HEK293 cells assessed as induction of membrane depolarization at 33 uM measured for 2.5 mins by FLIPR membrane potential dye-based fluorescence assay
T1 sequence (whole entry): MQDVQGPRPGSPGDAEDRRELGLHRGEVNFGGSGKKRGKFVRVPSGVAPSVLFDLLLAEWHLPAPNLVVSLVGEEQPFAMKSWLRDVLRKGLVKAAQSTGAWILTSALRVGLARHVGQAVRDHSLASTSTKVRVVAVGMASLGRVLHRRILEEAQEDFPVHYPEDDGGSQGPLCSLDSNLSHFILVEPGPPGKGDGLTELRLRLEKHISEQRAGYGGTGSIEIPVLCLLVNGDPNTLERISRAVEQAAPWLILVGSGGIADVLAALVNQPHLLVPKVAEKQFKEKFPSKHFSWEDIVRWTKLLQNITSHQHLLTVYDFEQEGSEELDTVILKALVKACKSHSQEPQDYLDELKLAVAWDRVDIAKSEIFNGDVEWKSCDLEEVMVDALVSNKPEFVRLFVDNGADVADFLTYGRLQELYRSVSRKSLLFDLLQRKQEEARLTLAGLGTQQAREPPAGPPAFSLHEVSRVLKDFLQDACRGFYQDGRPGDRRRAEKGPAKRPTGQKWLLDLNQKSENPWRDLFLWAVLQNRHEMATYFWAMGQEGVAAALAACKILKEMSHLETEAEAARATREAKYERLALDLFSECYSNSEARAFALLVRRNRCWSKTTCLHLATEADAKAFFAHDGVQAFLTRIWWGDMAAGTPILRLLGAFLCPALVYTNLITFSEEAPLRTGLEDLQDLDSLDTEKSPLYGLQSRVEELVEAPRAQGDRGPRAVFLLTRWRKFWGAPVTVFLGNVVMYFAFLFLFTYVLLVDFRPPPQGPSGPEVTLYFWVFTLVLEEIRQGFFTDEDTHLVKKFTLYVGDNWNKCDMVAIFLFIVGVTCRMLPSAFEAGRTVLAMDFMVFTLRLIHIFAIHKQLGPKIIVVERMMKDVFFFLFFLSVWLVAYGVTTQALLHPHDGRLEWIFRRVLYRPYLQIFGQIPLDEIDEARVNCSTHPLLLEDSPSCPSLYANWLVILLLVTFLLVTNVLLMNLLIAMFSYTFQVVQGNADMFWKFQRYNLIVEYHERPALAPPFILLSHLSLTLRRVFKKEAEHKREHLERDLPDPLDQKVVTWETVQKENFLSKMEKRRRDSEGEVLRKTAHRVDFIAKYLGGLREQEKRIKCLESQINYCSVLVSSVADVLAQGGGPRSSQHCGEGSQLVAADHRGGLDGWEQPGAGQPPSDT

[2] = target: T2, Transient receptor potential cation channel subfamily V member 3 (Mus musculus) (UniProt Q8K424); test: Agonist activity at mouse TRPV3 expressed in HEK293 cells assessed as increase in intracellular calcium level at 33 uM measured for 2.5 mins by Fluo-8-AM dye based fluorescence assay
T2 sequence (whole entry): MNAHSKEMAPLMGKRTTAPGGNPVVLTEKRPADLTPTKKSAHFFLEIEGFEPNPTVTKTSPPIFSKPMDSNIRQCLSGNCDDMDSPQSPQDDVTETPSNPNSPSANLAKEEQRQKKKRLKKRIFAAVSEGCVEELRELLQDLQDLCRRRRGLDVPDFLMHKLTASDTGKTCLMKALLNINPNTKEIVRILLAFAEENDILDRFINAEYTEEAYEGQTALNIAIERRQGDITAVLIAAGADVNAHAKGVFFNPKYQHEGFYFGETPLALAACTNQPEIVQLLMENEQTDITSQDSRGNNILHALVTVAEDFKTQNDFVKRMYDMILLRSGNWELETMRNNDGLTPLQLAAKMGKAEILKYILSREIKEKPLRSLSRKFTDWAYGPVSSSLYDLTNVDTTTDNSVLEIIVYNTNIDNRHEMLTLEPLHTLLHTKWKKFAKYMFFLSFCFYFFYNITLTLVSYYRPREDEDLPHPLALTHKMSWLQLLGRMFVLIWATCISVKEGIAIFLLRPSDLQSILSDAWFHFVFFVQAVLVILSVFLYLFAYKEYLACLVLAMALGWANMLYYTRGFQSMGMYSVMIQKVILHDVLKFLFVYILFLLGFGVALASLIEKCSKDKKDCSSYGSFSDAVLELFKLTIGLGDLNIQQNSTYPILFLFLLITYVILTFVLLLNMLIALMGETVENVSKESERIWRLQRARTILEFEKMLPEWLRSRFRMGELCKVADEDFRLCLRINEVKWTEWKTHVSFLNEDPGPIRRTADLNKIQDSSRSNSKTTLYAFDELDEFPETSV

[3] = target: Transient receptor potential cation channel subfamily V member 4 (Homo sapiens) (UniProt Q9HBA0); test: Agonist activity at human TRPV4 expressed in HEK293 cells assessed as increase in intracellular calcium level at 33 uM measured for 2.5 mins by Fluo-8-AM dye based fluorescence assay
Sequence of Transient receptor potential cation channel subfamily V member 4 (Homo sapiens) (Q9HBA0 whole entry): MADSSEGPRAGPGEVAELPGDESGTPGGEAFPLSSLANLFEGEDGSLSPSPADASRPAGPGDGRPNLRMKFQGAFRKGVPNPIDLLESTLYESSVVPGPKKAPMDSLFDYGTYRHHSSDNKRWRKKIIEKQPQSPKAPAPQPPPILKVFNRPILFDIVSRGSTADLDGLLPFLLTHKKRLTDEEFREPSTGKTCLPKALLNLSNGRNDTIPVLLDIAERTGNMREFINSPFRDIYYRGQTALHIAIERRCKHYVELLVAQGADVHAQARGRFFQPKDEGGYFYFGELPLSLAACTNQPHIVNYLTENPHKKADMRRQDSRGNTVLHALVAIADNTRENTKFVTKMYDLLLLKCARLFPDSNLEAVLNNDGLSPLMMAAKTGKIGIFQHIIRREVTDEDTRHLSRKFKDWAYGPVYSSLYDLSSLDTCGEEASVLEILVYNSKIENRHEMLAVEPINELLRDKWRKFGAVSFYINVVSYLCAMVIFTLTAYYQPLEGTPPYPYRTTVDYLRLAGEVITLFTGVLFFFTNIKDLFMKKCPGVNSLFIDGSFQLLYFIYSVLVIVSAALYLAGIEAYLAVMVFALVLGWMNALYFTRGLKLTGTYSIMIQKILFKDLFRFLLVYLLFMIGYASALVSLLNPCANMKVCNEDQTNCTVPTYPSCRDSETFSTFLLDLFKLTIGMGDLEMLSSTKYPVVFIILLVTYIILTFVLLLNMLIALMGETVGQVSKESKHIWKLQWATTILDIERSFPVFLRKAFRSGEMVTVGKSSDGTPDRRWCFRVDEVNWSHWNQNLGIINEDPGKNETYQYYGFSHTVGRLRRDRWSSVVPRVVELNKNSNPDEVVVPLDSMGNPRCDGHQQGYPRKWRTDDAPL

[4] = target: Transient receptor potential cation channel subfamily M member 8 (Mus musculus) (UniProt Q8R4D5); test: Agonist activity at mouse TRPM8 expressed in HEK293 cells assessed as increase in intracellular calcium level at 33 uM measured for 2.5 mins by Fluo-8-AM dye based fluorescence assay
Sequence of Transient receptor potential cation channel subfamily M member 8 (Mus musculus) (Q8R4D5 whole entry): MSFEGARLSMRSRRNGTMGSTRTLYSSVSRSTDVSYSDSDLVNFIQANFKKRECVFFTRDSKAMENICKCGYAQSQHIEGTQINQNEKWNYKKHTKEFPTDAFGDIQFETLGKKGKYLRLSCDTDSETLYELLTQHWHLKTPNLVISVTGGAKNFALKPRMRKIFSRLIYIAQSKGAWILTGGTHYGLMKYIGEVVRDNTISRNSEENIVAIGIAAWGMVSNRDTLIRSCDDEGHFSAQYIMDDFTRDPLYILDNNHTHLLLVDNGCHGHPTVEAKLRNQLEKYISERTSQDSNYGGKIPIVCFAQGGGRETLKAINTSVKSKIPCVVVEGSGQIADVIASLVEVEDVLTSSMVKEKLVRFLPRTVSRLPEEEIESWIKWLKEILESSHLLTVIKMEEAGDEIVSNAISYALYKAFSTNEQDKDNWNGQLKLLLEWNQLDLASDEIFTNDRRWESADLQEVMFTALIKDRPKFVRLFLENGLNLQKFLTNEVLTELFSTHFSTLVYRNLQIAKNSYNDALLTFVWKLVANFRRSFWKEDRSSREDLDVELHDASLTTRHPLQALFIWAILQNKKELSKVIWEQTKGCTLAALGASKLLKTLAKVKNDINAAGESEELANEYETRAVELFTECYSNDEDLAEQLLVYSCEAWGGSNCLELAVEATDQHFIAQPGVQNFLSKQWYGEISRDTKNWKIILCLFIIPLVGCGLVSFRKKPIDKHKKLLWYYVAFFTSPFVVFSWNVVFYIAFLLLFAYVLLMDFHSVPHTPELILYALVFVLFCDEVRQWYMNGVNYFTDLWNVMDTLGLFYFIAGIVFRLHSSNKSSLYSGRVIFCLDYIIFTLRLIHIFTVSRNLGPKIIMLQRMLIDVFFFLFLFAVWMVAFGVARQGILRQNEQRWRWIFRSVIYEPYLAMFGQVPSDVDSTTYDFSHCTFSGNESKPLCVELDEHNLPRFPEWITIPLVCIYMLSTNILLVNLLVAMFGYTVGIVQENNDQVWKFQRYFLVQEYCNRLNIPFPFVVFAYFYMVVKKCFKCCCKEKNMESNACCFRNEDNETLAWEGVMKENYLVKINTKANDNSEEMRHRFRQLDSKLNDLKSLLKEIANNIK

Measured: Activity

CCOC(=O)N1CCC(c2cc(O)n3nc(C)c(-c4ccc(F)cc4)c3n2)CC1
inactive: all assays above

CCOC(=O)N1CCC(c2cc(O)n3nc(C)c(-c4ccc(C(F)(F)F)cc4)c3n2)CC1
inactive: all assays above

Cc1nn2c(O)cc(C3CCN(C(=O)OCc4ccccc4)CC3)nc2c1-c1ccc(F)cc1
inactive: all assays above

Cc1nn2c(O)cc(C3CCN(C(=O)OCc4ccccc4)CC3)nc2c1-c1ccc(Cl)cc1
inactive: all assays above

Reference: ChEMBL document CHEMBL4014306, “Pyrazolopyrimidines as Potent Stimulators for Transient Receptor Potential Canonical 3/6/7 Channels” (J Med Chem, 2017)
